# Source: paper PMC12102759 (Protein Science : A Publication of the Protein Society, 2025)
# System: G3BP1 NFT2
# Format: binding, human
# Settings: library DMS-CoV; bait G3BP1 NFT2; prey N; peptide APRITFGGPSDSTGSN; listed as aa = residue placed at this position; column sums to 1
Sequence,"DMS PSSM value, G (position 7)","DMS PSSM value, S (position 12)","DMS PSSM value, A (position 1)","DMS PSSM value, D (position 11)","DMS PSSM value, P (position 2)","DMS PSSM value, G (position 14)","DMS PSSM value, T (position 5)","DMS PSSM value, P (position 9)","DMS PSSM value, R (position 3)","DMS PSSM value, F (position 6)"
APRITFGGPSDSTGSN G7Y (APRITFYGPSDSTGSN),0,,,,,,,,,
APRITFGGPSDSTGSN S12R (APRITFGGPSDRTGSN),,0,,,,,,,,
APRITFGGPSDSTGSN A1M (MPRITFGGPSDSTGSN),,,0.03133,,,,,,,
APRITFGGPSDSTGSN D11G (APRITFGGPSGSTGSN),,,,0,,,,,,
APRITFGGPSDSTGSN P2K (AKRITFGGPSDSTGSN),,,,,0,,,,,
APRITFGGPSDSTGSN G14H (APRITFGGPSDSTHSN),,,,,,0.009284,,,,
APRITFGGPSDSTGSN T5H (APRIHFGGPSDSTGSN),,,,,,,0,,,
APRITFGGPSDSTGSN P9R (APRITFGGRSDSTGSN),,,,,,,,0,,
APRITFGGPSDSTGSN R3Q (APQITFGGPSDSTGSN),,,,,,,,,0.006747,
APRITFGGPSDSTGSN F6P (APRITPGGPSDSTGSN),,,,,,,,,,0
APRITFGGPSDSTGSN P9L (APRITFGGLSDSTGSN),,,,,,,,0,,
APRITFGGPSDSTGSN P2F (AFRITFGGPSDSTGSN),,,,,0.0008942,,,,,
APRITFGGPSDSTGSN P9T (APRITFGGTSDSTGSN),,,,,,,,0.01557,,
APRITFGGPSDSTGSN P9F (APRITFGGFSDSTGSN),,,,,,,,0.2349,,
APRITFGGPSDSTGSN D11E (APRITFGGPSESTGSN),,,,0.08423,,,,,,
APRITFGGPSDSTGSN G7F (APRITFFGPSDSTGSN),0,,,,,,,,,
APRITFGGPSDSTGSN G7L (APRITFLGPSDSTGSN),0,,,,,,,,,
APRITFGGPSDSTGSN S12V (APRITFGGPSDVTGSN),,0.04482,,,,,,,,
APRITFGGPSDSTGSN S12H (APRITFGGPSDHTGSN),,0.0346,,,,,,,,

Sequence,"DMS PSSM value, G (position 7)","DMS PSSM value, S (position 12)","DMS PSSM value, A (position 1)","DMS PSSM value, D (position 11)","DMS PSSM value, P (position 2)","DMS PSSM value, G (position 14)","DMS PSSM value, T (position 5)","DMS PSSM value, P (position 9)","DMS PSSM value, R (position 3)","DMS PSSM value, F (position 6)"
APRITFGGPSDSTGSN G14Q (APRITFGGPSDSTQSN),,,,,,0.3116,,,,
APRITFGGPSDSTGSN T5S (APRISFGGPSDSTGSN),,,,,,,0.002921,,,
APRITFGGPSDSTGSN A1K (KPRITFGGPSDSTGSN),,,0,,,,,,,
APRITFGGPSDSTGSN D11S (APRITFGGPSSSTGSN),,,,0.01892,,,,,,
APRITFGGPSDSTGSN R3F (APFITFGGPSDSTGSN),,,,,,,,,0.003092,
APRITFGGPSDSTGSN F6K (APRITKGGPSDSTGSN),,,,,,,,,,0
APRITFGGPSDSTGSN A1W (WPRITFGGPSDSTGSN),,,0.0009046,,,,,,,
APRITFGGPSDSTGSN T5I (APRIIFGGPSDSTGSN),,,,,,,0.002921,,,
APRITFGGPSDSTGSN G14P (APRITFGGPSDSTPSN),,,,,,0.002211,,,,
APRITFGGPSDSTGSN D11T (APRITFGGPSTSTGSN),,,,0.104,,,,,,
APRITFGGPSDSTGSN T5A (APRIAFGGPSDSTGSN),,,,,,,0,,,
APRITFGGPSDSTGSN T5Y (APRIYFGGPSDSTGSN),,,,,,,0,,,
APRITFGGPSDSTGSN P9Q (APRITFGGQSDSTGSN),,,,,,,,0,,
APRITFGGPSDSTGSN A1I (IPRITFGGPSDSTGSN),,,0.004309,,,,,,,
APRITFGGPSDSTGSN F6R (APRITRGGPSDSTGSN),,,,,,,,,,0
APRITFGGPSDSTGSN A1T (TPRITFGGPSDSTGSN),,,0.07786,,,,,,,
APRITFGGPSDSTGSN G7Q (APRITFQGPSDSTGSN),0.005359,,,,,,,,,
APRITFGGPSDSTGSN P9I (APRITFGGISDSTGSN),,,,,,,,0.01105,,
APRITFGGPSDSTGSN D11K (APRITFGGPSKSTGSN),,,,0,,,,,,

# Same assay, conditions: library DMS-CoV; bait G3BP1 NFT2; prey N; peptide APRITFGGPSDSTGSN; listed as aa = residue placed at this position; column sums to 1
Sequence,"DMS PSSM value, S (position 15)","DMS PSSM value, G (position 8)","DMS PSSM value, I (position 4)","DMS PSSM value, S (position 10)","DMS PSSM value, T (position 13)"
APRITFGGPSDSTGSN S15L (APRITFGGPSDSTGLN),0.01038,,,,
APRITFGGPSDSTGSN G8R (APRITFGRPSDSTGSN),,0,,,
APRITFGGPSDSTGSN I4M (APRMTFGGPSDSTGSN),,,0,,
APRITFGGPSDSTGSN S10Y (APRITFGGPYDSTGSN),,,,0.2277,
APRITFGGPSDSTGSN I4H (APRHTFGGPSDSTGSN),,,0,,
APRITFGGPSDSTGSN S15R (APRITFGGPSDSTGRN),0,,,,
APRITFGGPSDSTGSN S15K (APRITFGGPSDSTGKN),0.0001786,,,,
APRITFGGPSDSTGSN I4T (APRTTFGGPSDSTGSN),,,0,,
APRITFGGPSDSTGSN T13M (APRITFGGPSDSMGSN),,,,,0.06406
APRITFGGPSDSTGSN T13I (APRITFGGPSDSIGSN),,,,,0.0005621
APRITFGGPSDSTGSN S10L (APRITFGGPLDSTGSN),,,,0.002677,
APRITFGGPSDSTGSN T13H (APRITFGGPSDSHGSN),,,,,0.0006139
APRITFGGPSDSTGSN S10W (APRITFGGPWDSTGSN),,,,0,
APRITFGGPSDSTGSN S15Y (APRITFGGPSDSTGYN),0.1419,,,,
APRITFGGPSDSTGSN I4W (APRWTFGGPSDSTGSN),,,0,,
APRITFGGPSDSTGSN I4E (APRETFGGPSDSTGSN),,,0,,

# Same assay, conditions: library DMS-CoV; bait G3BP1 NFT2; prey N; peptide RNAPRITFGGPSDSTG; listed as aa = residue placed at this position; column sums to 1
Sequence,"DMS PSSM value, F (position 8)","DMS PSSM value, T (position 15)","DMS PSSM value, G (position 16)","DMS PSSM value, S (position 12)","DMS PSSM value, P (position 4)","DMS PSSM value, S (position 14)","DMS PSSM value, T (position 7)","DMS PSSM value, P (position 11)","DMS PSSM value, G (position 10)","DMS PSSM value, A (position 3)"
RNAPRITFGGPSDSTG F8S (RNAPRITSGGPSDSTG),0,,,,,,,,,
RNAPRITFGGPSDSTG T15G (RNAPRITFGGPSDSGG),,0,,,,,,,,
RNAPRITFGGPSDSTG G16W (RNAPRITFGGPSDSTW),,,0,,,,,,,
RNAPRITFGGPSDSTG T15N (RNAPRITFGGPSDSNG),,0,,,,,,,,
RNAPRITFGGPSDSTG S12M (RNAPRITFGGPMDSTG),,,,0,,,,,,
RNAPRITFGGPSDSTG P4V (RNAVRITFGGPSDSTG),,,,,0,,,,,
RNAPRITFGGPSDSTG S14T (RNAPRITFGGPSDTTG),,,,,,0,,,,
RNAPRITFGGPSDSTG T7K (RNAPRIKFGGPSDSTG),,,,,,,0,,,
RNAPRITFGGPSDSTG P11Y (RNAPRITFGGYSDSTG),,,,,,,,0,,
RNAPRITFGGPSDSTG G10R (RNAPRITFGRPSDSTG),,,,,,,,,0,
RNAPRITFGGPSDSTG A3V (RNVPRITFGGPSDSTG),,,,,,,,,,0
RNAPRITFGGPSDSTG S12Y (RNAPRITFGGPYDSTG),,,,0,,,,,,
RNAPRITFGGPSDSTG G10N (RNAPRITFGNPSDSTG),,,,,,,,,0,
RNAPRITFGGPSDSTG T15D (RNAPRITFGGPSDSDG),,0,,,,,,,,
RNAPRITFGGPSDSTG G10Q (RNAPRITFGQPSDSTG),,,,,,,,,0,
RNAPRITFGGPSDSTG S12H (RNAPRITFGGPHDSTG),,,,0,,,,,,

Sequence,"DMS PSSM value, F (position 8)","DMS PSSM value, T (position 15)","DMS PSSM value, G (position 16)","DMS PSSM value, S (position 12)","DMS PSSM value, P (position 4)","DMS PSSM value, S (position 14)","DMS PSSM value, T (position 7)","DMS PSSM value, P (position 11)","DMS PSSM value, G (position 10)","DMS PSSM value, A (position 3)"
RNAPRITFGGPSDSTG T15A (RNAPRITFGGPSDSAG),,0,,,,,,,,
RNAPRITFGGPSDSTG T15V (RNAPRITFGGPSDSVG),,0,,,,,,,,
RNAPRITFGGPSDSTG F8G (RNAPRITGGGPSDSTG),0,,,,,,,,,
RNAPRITFGGPSDSTG G10A (RNAPRITFGAPSDSTG),,,,,,,,,1,
RNAPRITFGGPSDSTG T7E (RNAPRIEFGGPSDSTG),,,,,,,1,,,
RNAPRITFGGPSDSTG G16L (RNAPRITFGGPSDSTL),,,0,,,,,,,
RNAPRITFGGPSDSTG T7L (RNAPRILFGGPSDSTG),,,,,,,0,,,
RNAPRITFGGPSDSTG T7G (RNAPRIGFGGPSDSTG),,,,,,,0,,,
RNAPRITFGGPSDSTG A3T (RNTPRITFGGPSDSTG),,,,,,,,,,0
RNAPRITFGGPSDSTG P4D (RNADRITFGGPSDSTG),,,,,0,,,,,
RNAPRITFGGPSDSTG G16I (RNAPRITFGGPSDSTI),,,0,,,,,,,
RNAPRITFGGPSDSTG A3Y (RNYPRITFGGPSDSTG),,,,,,,,,,0
RNAPRITFGGPSDSTG T7I (RNAPRIIFGGPSDSTG),,,,,,,0,,,
RNAPRITFGGPSDSTG S12T (RNAPRITFGGPTDSTG),,,,0,,,,,,
RNAPRITFGGPSDSTG F8T (RNAPRITTGGPSDSTG),0,,,,,,,,,
RNAPRITFGGPSDSTG A3W (RNWPRITFGGPSDSTG),,,,,,,,,,0

# Same assay, conditions: library DMS-CoV; bait G3BP1 NFT2; prey N; peptide RNAPRITFGGPSDSTG; listed as aa = residue placed at this position; column sums to 1
Sequence,"DMS PSSM value, D (position 13)","DMS PSSM value, G (position 9)","DMS PSSM value, N (position 2)","DMS PSSM value, I (position 6)","DMS PSSM value, R (position 5)"
RNAPRITFGGPSDSTG D13T (RNAPRITFGGPSTSTG),0,,,,
RNAPRITFGGPSDSTG G9D (RNAPRITFDGPSDSTG),,1,,,
RNAPRITFGGPSDSTG D13V (RNAPRITFGGPSVSTG),0,,,,
RNAPRITFGGPSDSTG D13I (RNAPRITFGGPSISTG),0,,,,
RNAPRITFGGPSDSTG G9Y (RNAPRITFYGPSDSTG),,0,,,
RNAPRITFGGPSDSTG N2L (RLAPRITFGGPSDSTG),,,0,,
RNAPRITFGGPSDSTG N2G (RGAPRITFGGPSDSTG),,,0,,
RNAPRITFGGPSDSTG G9F (RNAPRITFFGPSDSTG),,0,,,
RNAPRITFGGPSDSTG N2W (RWAPRITFGGPSDSTG),,,0,,
RNAPRITFGGPSDSTG G9P (RNAPRITFPGPSDSTG),,0,,,
RNAPRITFGGPSDSTG I6K (RNAPRKTFGGPSDSTG),,,,0,
RNAPRITFGGPSDSTG I6R (RNAPRRTFGGPSDSTG),,,,0,
RNAPRITFGGPSDSTG I6Y (RNAPRYTFGGPSDSTG),,,,0,
RNAPRITFGGPSDSTG D13G (RNAPRITFGGPSGSTG),0,,,,
RNAPRITFGGPSDSTG N2M (RMAPRITFGGPSDSTG),,,0,,
RNAPRITFGGPSDSTG R5E (RNAPEITFGGPSDSTG),,,,,0.1354
RNAPRITFGGPSDSTG I6D (RNAPRDTFGGPSDSTG),,,,0,
